Data taken from patent US20210246115A1 (Bioimics AB, priority 2017, published 2021).
In brackets after ≈: the same amount, converted by molar mass. Counter-ions that a name gives are not always drawn. Like-named read-outs stand apart in the source and are kept apart here.

What was measured:
[1] = tested on: Staphylococcus aureus subsp. aureus (ATCC29213); assay: MIC, broth microdilution (CLSI), Staphylococcus aureus ATCC29213; type: cell-based; settings: Staphylococcus aureus
[2] = tested on: Escherichia coli (ATCC25922); assay: MIC, broth microdilution (CLSI), Escherichia coli; settings: Escherichia coli, ATCC25922, read-out: E. coli ATCC 25922 MIC, Table XIII
[3] = tested on: E. coli RNase P RNA, M1 RNA; assay: Inhibition of bacterial RNase P activity, IC50 determination (cleavage of pATSerUG by M1 RNA); type: biochemical; settings: NI: No inhibition
[4] = tested on: Staphylococcus aureus (ATCC25923); assay: MIC, broth microdilution (CLSI), Staphylococcus aureus ATCC25923; settings: Staphylococcus aureus, ATCC25923, read-out: S. aureus ATCC 25923 MIC
[5] = ATCC29213, Table XIII, read-out: S. aureus ATCC 29213 MIC
[6] = ATCC29213, read-out: S. aureus ATCC 29213 MIC, Table XIII

| MIC [1, 5] [µg/mL] | MIC [2] [µg/mL] | IC50 [3] [µM] | MIC [4] [µg/mL] | Structure (SMILES) | MIC [1, 6] [µg/mL] |
| --- | --- | --- | --- | --- | --- |
| 16 | 8 | – | – | Cc1ccccc1C(CCNCCCN)c1cn(C2CCCC2)c2ccccc12.Cl.Cl (stereo not drawn) [Compound 342, N1-(3-(1-cyclopentyl-1H-indol-3-yl)-3-(o-tolyl)propyl)propane-1,3-diamine hydrochloride salt] | – |
| 32 | 16 | – | – | Cl.Cl.NCCCNCCC(c1cn(C2CCCCC2)c2ccccc12)C1CC1 (stereo not drawn) [Compound 422, N1-(3-(1-cyclohexyl-1H-indol-3-yl)-3-cyclopropylpropyl) propane-1,3-diamine hydrochloride salt] | – |
| 4 | 8 | – | – | Cl.Cl.N[C@H]1CC[C@H](NCCC(c2cn(C3CCCCC3)c3ccccc23)C2CCCCC2)CC1 (stereo partly drawn) [Compound 378] | – |
| 64 | 64 | – | – | Cl.Cl.c1ccc2c(c1)c(C(CCNC1CCNCC1)c1ccncc1)cn2C1CCCCC1 (stereo not drawn) [Compound 335, N-(3-(1-cyclohexyl-1H-indol-3-yl)-3-(pyridin-4-yl)propyl)piperidin-4-amine hydrochloride salt] | – |
| 8 | 8 | – | – | Cl.Cl.N#Cc1ccc2c(c1)c(C(CCNC1CCNCC1)C1CCCCC1)cn2C1CCCCC1 (stereo not drawn) [Compound 406, 1-cyclohexyl-3-(1-cyclohexyl-3-(piperidin-4-ylamino)propyl)-1H-indole-5-carbonitrile salt] | – |
| 16 (≈ 42.3 µM) | 32 (≈ 84.5 µM) | – | – | N#Cc1ccc2c(c1)c(C1CCCC(NCCCN)C1)cn2C1CCCCC1 (stereo not drawn) [Compound 389, 3-(3-((3-aminopropyl)amino)cyclohexyl)-1-cyclohexyl-1H-indole-5-carbonitrile] | – |
| 8 | 8 | – | – | Cc1cccc(C(CCNCCCCN)c2cn(C3CCCCC3)c3ccccc23)c1.Cl.Cl (stereo not drawn) [Compound 350, N1-(3-(1-cyclohexyl-1H-indol-3-yl)-3-(m-tolyl)propyl)butane-1,4-diamine salt] | – |
| 8 | 8 | – | – | CNCCCNCCC(c1cccc(C)c1)c1cn(C2CCCCC2)c2ccccc12.Cl.Cl (stereo not drawn) [Compound 368, N1-(3-(1-cyclohexyl-1H-indol-3-yl)-3-(m-tolyl)propyl)-N3-methylpropane-1,3-diamine hydrochloride] | – |
| 16 (≈ 38.1 µM) | 8 (≈ 19.1 µM) | – | – | Cc1cccc(C(CCNCC(O)CN)c2cn(C3CCCCC3)c3ccccc23)c1 (stereo not drawn) [Compound 386, 1-amino-3-((3-(1-cyclohexyl-1H-indol-3-yl)-3-(m-tolyl)propyl)amino) propan-2-ol] | – |
| 16 | 16 | – | – | Cl.Cl.NCCCNCCCc1cn(C2CCCCC2)c2ccc(Br)cc12 [Compound 359, N1-(3-(5-bromo-1-cyclohexyl-1H-indol-3-yl)propyl)propane-1,3-diamine hydrochloride salt] | – |
| 16 (≈ 39.5 µM) | > 128 | – | – | Cc1cccc(C(CCNCCCO)c2cn(C3CCCCC3)c3ccccc23)c1 (stereo not drawn) [Compound 366, 3-((3-(1-cyclohexyl-1H-indol-3-yl)-3-(m-tolyl)propyl)amino) propan-1-ol] | – |
| > 128 | > 128 | – | – | Cc1cccc(C(CCN(C#N)C2CCC(NC(N)=O)CC2)c2cn(C3CCCCC3)c3ccccc23)c1 [Compound 361, 1-(((1S,4S)-4-(N-(3-(1-cyclohexyl-1H-indol-3-yl)-3-(m-tolyl)propyl)cyanamido)cyclohexyl)urea salt] | – |
| 32 | 64 | – | – | Cl.Cl.NCCCNCCC(c1cccnc1)c1cn(C2CC3CCC2C3)c2ccccc12 (stereo not drawn) [Compound 328, N1-(3-(1-(bicyclo[2.2.1]heptan-2-yl)-1H-indol-3-yl)-3-(pyridin-3-yl)propyl)propane-1,3-diamine hydrochloride salt] | – |
| 8 | 8 | – | – | Cc1cccc(CC(CCNCCCN)c2cn(C3CCCCC3)c3ccccc23)c1.Cl.Cl (stereo not drawn) [Compound 419, N1-(3-(1-cyclohexyl-1H-indol-3-yl)-4-(m-tolyl)butyl)propane-1,3-diamine hydrochloride salt] | – |
| 32 | 64 | – | – | Cl.Cl.c1cncc(C(CCNC2CCNCC2)c2cn(C3CCCCC3)c3ccccc23)c1 (stereo not drawn) [Compound 329, N-(3-(1-cyclohexyl-1H-indol-3-yl)-3-(pyridin-3-yl)propyl)piperidin-4-amine hydrochloride salt] | – |
| 8 | 8 | – | – | Cc1cccc(C(CCNCCCN)c2cn(CC3CCCCC3)c3ccccc23)c1.Cl.Cl (stereo not drawn) [Compound 346, N1-(3-(1-(cyclohexylmethyl)-1H-indol-3-yl)-3-(m-tolyl)propyl)propane-1,3-diamine hydrochloride salt] | – |
| 8 | > 128 | – | – | Cc1cccc(C(CCN)c2cn(C3CCCCC3)c3ccccc23)c1.Cl (stereo not drawn) [Compound 352, 3-(1-cyclohexyl-1H-indol-3-yl)-3-(m-tolyl)propan-1-amine hydrochloride salt] | – |
| – | > 512 | 115 | 5 | Cc1cccc(C(CC(=O)NCC2CCC(CN)CC2)c2cn(CC3CCCCC3)c3ccc(Br)cc23)c1.Cl (stereo not drawn) [Compound 203, N-((4-(aminomethyl)cyclohexyl)methyl)-3-(5-bromo-1-(cyclohexylmethyl)-1H-indol-3-yl)-3-(m-tolyl)propanamide hydrochloride salt] | – |
| – | 128 | 145 | 128 | Cl.O=C(CCc1cn(CC2CCCCC2)c2ccccc12)NC1CCNCC1 [Compound 115, 3-(1-(cyclohexylmethyl)-1H-indol-3-yl)-N-(piperidin-4-yl)propanamide hydrochloride salt] | – |
| – | 128 | 95 | 64 | Cl.N[C@H]1CC[C@H](NC(=O)CC(c2cccnc2)c2cn(CC3CCCCC3)c3ccccc23)CC1 (stereo partly drawn) [Compound 138, N-((1R,4R)-4-aminocyclohexyl)-3-(1-(cyclohexylmethyl)-1H-indol-3-yl)-3-(pyridin-3-yl)propanamide hydrochloride salt] | – |
| – | 136 | 71 | 34 | Cc1cccc(C(CC(=O)NC2CCNCC2)c2cn(CC3CCC(F)(F)CC3)c3ccccc23)c1.Cl (stereo not drawn) [Compound 282, 3-(1-((4,4-difluorocyclohexyl)methyl)-1H-indol-3-yl)-N-(piperidin-4-yl)-3-(m-tolyl)propanamide hydrochloride salt] | – |
| – | 128 | 200 | 16 | Cc1cccc(C(CC(=O)NCCN(C)C)c2cn(CC3CCCCC3)c3ccccc23)c1.Cl (stereo not drawn) [Compound 103, 3-(1-(cyclohexylmethyl)-1H-indol-3-yl)-N-(2-(dimethylamino)ethyl)-3-(m-tolyl)propanamide hydrochloride salt] | – |

| Structure (SMILES) | MIC [1, 5] [µg/mL] | MIC [2] [µg/mL] | IC50 [3] [µM] | MIC [4] [µg/mL] | MIC [1, 6] [µg/mL] |
| --- | --- | --- | --- | --- | --- |
| Cc1cccc(C(CCNC2CCC(N)CC2)c2cn(CC3CCNCC3)c3ccccc23)c1 (stereo not drawn) [Compound 313, N1-(3-(1-(piperidin-4-ylmethyl)-1H-indol-3-yl)-3-(m-tolyl)propyl)cyclohexane-1,4-diamine hydrochloride salt] | – | > 128 | – | – | 16 |
| CN(Cc1cn(CC2CCCCC2)c2ccccc12)CC1CCNCC1 [Compound 301, 1-(1-(cyclohexylmethyl)-1H-indol-3-yl)-N-methyl-N-(piperidin-4-ylmethyl)methanamine hydrochloride salt] | – | 128 | – | – | 128 |
| Cc1cccc(C(CCNC2CCC(N)CC2)c2cn(CC3CCOCC3)c3ccc(CN)cc23)c1 (stereo not drawn) [Compound 311, N1-(3-(5-(aminomethyl)-1-((tetrahydro-2H-pyran-4-yl)methyl)-1H-indol-3-yl)-3-(m-tolyl)propyl) cyclohexane-1,4-diamine hydrochloride salt] | – | > 128 | – | – | 128 |
| Cc1cccc(C(CCNC2CCC(N)CC2)c2cn(C3CCOCC3)c3ccccc23)c1 (stereo not drawn) [Compound 307, N1-(3-(1-(tetrahydro-2H-pyran-4-yl)-1H-indol-3-yl)-3-(m-tolyl)propyl) cyclohexane-1,4-diamine hydrochloride salt] | – | 64 | – | – | 64 |
| Cc1cccc(C(CCNCCCN)c2cn(CC3CCNCC3)c3ccccc23)c1 (stereo not drawn) [Compound 314, N1-(3-(1-(piperidin-4-ylmethyl)-1H-indol-3-yl)-3-(m-tolyl)propyl)propane-1,3-diamine hydrochloride salt] | – | > 128 | – | – | 16 |
| CCN(Cc1cn(CC2CCCCC2)c2ccccc12)CC1CCNCC1 [Compound 302, hydrochloride salt] | – | 128 | – | – | 128 |
| O=C(O)c1ccc2c(c1)c(CNCC1CCNCC1)cn2CC1CCCCC1 [Compound 305, 1-(cyclohexylmethyl)-3-(((piperidin-4-ylmethyl)amino)methyl)-1H-indole-5-carboxylic acid hydrochloride salt] | – | > 128 | – | – | > 128 |
| Cc1cccc(C(CCNCCCN)c2cn(CC3CCNCC3)c3ccc(C#N)cc23)c1 (stereo not drawn) [Compound 327, 3-(3-((3-aminopropyl)amino)-1-(m-tolyl)propyl)-1-(piperidin-4-ylmethyl)-1H-indole-5-carbonitrile hydrochloride salt] | – | > 128 | – | – | 32 |
| c1ccc2c(c1)c(CNCC1CCNCC1)cn2CC1CCCCC1 [Compound 300, 1-(1-(cyclohexylmethyl)-1H-indol-3-yl)-N-(piperidin-4-ylmethyl)methanamine hydrochloride salt] | – | 128 | – | – | 128 |
| COC(=O)c1ccc2c(c1)c(CNCC1CCNCC1)cn2CC1CCCCC1 [Compound 304, methyl 1-(cyclohexylmethyl)-3-(((piperidin-4-ylmethyl)amino)methyl)-1H-indole-5-carboxylate hydrochloride salt] | – | > 128 | – | – | 64 |
